Read-outs that look alike come from different tables or passages of the source.
Legend:
[1] = Urinary concentrations of NNI compounds in wild raccoons; assay type: in vivo, raccoon, Procyon lotor; details: for GM ± SD urinary concentration / Percentile 25th urinary concentration / Percentile 50th urinary concentration / Percentile 75th urinary concentration / Percentile 95th urinary concentration / Percentile 100th urinary concentration: raccoon urine, n = 59
[2] = Japanese people, n = 45; ref Ikenaka et al. ([2019]); cited from earlier work
[3] = obtained from previous studies on humans; ref Ikenaka et al., [2019]; cited from earlier work
[4] = mice, 78‐week carcinogenicity study; ref Hirano et al., [2018]; cited from earlier work
[5] = Raccoons: present study (n = 59)

C/C(=N\C#N)N(C)Cc1ccc(Cl)nc1 [Acetamiprid, acetamiprid]
Mean urinary neonicotinoid concentration [1, 5]: 0.28 µg/g creatinine
GM ± SD urinary concentration ([1]; creatinine‐adjusted): 0.10 ± 0.74 μg/g creatinine
Percentile 25th urinary concentration ([1]; creatinine‐adjusted): <PQL
Percentile 50th urinary concentration ([1]; creatinine‐adjusted): <PQL
Percentile 75th urinary concentration ([1]; creatinine‐adjusted): 0.25 µg/g creatinine
Percentile 95th urinary concentration ([1]; creatinine‐adjusted): 0.79 µg/g creatinine
Percentile 100th urinary concentration ([1]; creatinine‐adjusted): 5.61 µg/g creatinine
GM ± SD urinary concentration ([1]; volume‐adjusted): 0.07 ± 0.20 µg/L
Percentile 25th urinary concentration ([1]; volume‐adjusted): <PQL
Percentile 50th urinary concentration ([1]; volume‐adjusted): <PQL
Percentile 75th urinary concentration ([1]; volume‐adjusted): 0.23 µg/L
Percentile 95th urinary concentration ([1]; volume‐adjusted): 0.33 µg/L
Percentile 100th urinary concentration ([1]; volume‐adjusted): 1.29 µg/L
Maximum urinary neonicotinoid concentration [2]: 1.03 µg/g creatinine
Mean urinary neonicotinoid concentration [2]: 0.043 µg/g creatinine
urinary excretion correction coefficient r [3]: 0.586

CN/C(=N\[N+](=O)[O-])NCc1cnc(Cl)s1 [Clothianidin, clothianidin]
Mean urinary neonicotinoid concentration [1, 5]: 0.81 µg/g creatinine
GM ± SD urinary concentration ([1]; creatinine‐adjusted): 0.26 ± 1.65 μg/g creatinine
Percentile 25th urinary concentration ([1]; creatinine‐adjusted): <PQL
Percentile 50th urinary concentration ([1]; creatinine‐adjusted): 0.21 µg/g creatinine
Percentile 75th urinary concentration ([1]; creatinine‐adjusted): 0.43 µg/g creatinine
Percentile 95th urinary concentration ([1]; creatinine‐adjusted): 4 µg/g creatinine
Percentile 100th urinary concentration ([1]; creatinine‐adjusted): 9.4 µg/g creatinine
GM ± SD urinary concentration ([1]; volume‐adjusted): 0.17 ± 0.89 µg/L
Percentile 25th urinary concentration ([1]; volume‐adjusted): <PQL
Percentile 50th urinary concentration ([1]; volume‐adjusted): 0.14 µg/L
Percentile 75th urinary concentration ([1]; volume‐adjusted): 0.45 µg/L
Percentile 95th urinary concentration ([1]; volume‐adjusted): 2.62 µg/L
Percentile 100th urinary concentration ([1]; volume‐adjusted): 4.33 µg/L
Maximum urinary neonicotinoid concentration [2]: 15.06 µg/g creatinine
Mean urinary neonicotinoid concentration [2]: 1.06 µg/g creatinine
no‐observable‐adverse‐effect level (NOAEL) [4]: ~50 mg/kg
urinary excretion correction coefficient r [3]: 0.596

CN/C(=N/CC1CCOC1)N[N+](=O)[O-] (stereo not drawn) [Dinotefuran, dinotefuran]
Mean urinary neonicotinoid concentration [1, 5]: 0.74 µg/g creatinine
GM ± SD urinary concentration ([1]; creatinine‐adjusted): 0.37 ± 1.64 μg/g creatinine
Percentile 25th urinary concentration ([1]; creatinine‐adjusted): <PQL
Percentile 50th urinary concentration ([1]; creatinine‐adjusted): <PQL
Percentile 75th urinary concentration ([1]; creatinine‐adjusted): <PQL
Percentile 95th urinary concentration ([1]; creatinine‐adjusted): 1.38 µg/g creatinine
Percentile 100th urinary concentration ([1]; creatinine‐adjusted): 10.28 µg/g creatinine
GM ± SD urinary concentration ([1]; volume‐adjusted): 0.25 ± 0.76 µg/L
Percentile 25th urinary concentration ([1]; volume‐adjusted): <PQL
Percentile 50th urinary concentration ([1]; volume‐adjusted): <PQL
Percentile 75th urinary concentration ([1]; volume‐adjusted): <PQL
Percentile 95th urinary concentration ([1]; volume‐adjusted): 1.11 µg/L
Percentile 100th urinary concentration ([1]; volume‐adjusted): 5.67 µg/L
Maximum urinary neonicotinoid concentration [2]: 9.49 µg/g creatinine
Mean urinary neonicotinoid concentration [2]: 0.57 µg/g creatinine
urinary excretion correction coefficient r [3]: 0.899

O=[N+]([O-])NC1=NCCN1Cc1ccc(Cl)nc1 [Imidacloprid, imidacloprid]
Mean urinary neonicotinoid concentration [1, 5]: 0.23 µg/g creatinine
GM ± SD urinary concentration ([1]; creatinine‐adjusted): 0.08 ± 0.75 μg/g creatinine
Percentile 25th urinary concentration ([1]; creatinine‐adjusted): <PQL
Percentile 50th urinary concentration ([1]; creatinine‐adjusted): <PQL
Percentile 75th urinary concentration ([1]; creatinine‐adjusted): <PQL
Percentile 95th urinary concentration ([1]; creatinine‐adjusted): 0.43 µg/g creatinine
Percentile 100th urinary concentration ([1]; creatinine‐adjusted): 5.76 µg/g creatinine
GM ± SD urinary concentration ([1]; volume‐adjusted): 0.06 ± 0.20 µg/L
Percentile 25th urinary concentration ([1]; volume‐adjusted): <PQL
Percentile 50th urinary concentration ([1]; volume‐adjusted): <PQL
Percentile 75th urinary concentration ([1]; volume‐adjusted): <PQL
Percentile 95th urinary concentration ([1]; volume‐adjusted): 0.36 µg/L
Percentile 100th urinary concentration ([1]; volume‐adjusted): 1.45 µg/L
Maximum urinary neonicotinoid concentration [2]: 1.59 µg/g creatinine
Mean urinary neonicotinoid concentration [2]: 0.13 µg/g creatinine
urinary excretion correction coefficient r [3]: 0.133

CCN(Cc1ccc(Cl)nc1)/C(=C/[N+](=O)[O-])NC [Nitenpyram, nitenpyram]
Maximum urinary neonicotinoid concentration [1, 5]: 0 µg/g creatinine
Mean urinary neonicotinoid concentration [1, 5]: 0 µg/g creatinine
Percentile 25th urinary concentration ([1]; creatinine‐adjusted): <PQL
Percentile 50th urinary concentration ([1]; creatinine‐adjusted): <PQL
Percentile 75th urinary concentration ([1]; creatinine‐adjusted): <PQL
Percentile 95th urinary concentration ([1]; creatinine‐adjusted): <PQL
Percentile 100th urinary concentration ([1]; creatinine‐adjusted): <PQL
Percentile 25th urinary concentration ([1]; volume‐adjusted): <PQL
Percentile 50th urinary concentration ([1]; volume‐adjusted): <PQL
Percentile 75th urinary concentration ([1]; volume‐adjusted): <PQL
Percentile 95th urinary concentration ([1]; volume‐adjusted): <PQL
Percentile 100th urinary concentration ([1]; volume‐adjusted): <PQL
Maximum urinary neonicotinoid concentration [2]: 1.25 µg/g creatinine
Mean urinary neonicotinoid concentration [2]: 0.1 µg/g creatinine

C/C(=N\C#N)NCc1ccc(Cl)nc1 [N‐dm‐acetamiprid, N‐desmethyl‐acetamiprid]
Mean urinary neonicotinoid concentration [1, 5]: 2.48 µg/g creatinine
GM ± SD urinary concentration ([1]; creatinine‐adjusted): 0.16 ± 10.78 μg/g creatinine
Percentile 25th urinary concentration ([1]; creatinine‐adjusted): <PQL
Percentile 50th urinary concentration ([1]; creatinine‐adjusted): <PQL
Percentile 75th urinary concentration ([1]; creatinine‐adjusted): 0.35 µg/g creatinine
Percentile 95th urinary concentration ([1]; creatinine‐adjusted): 8.28 µg/g creatinine
Percentile 100th urinary concentration ([1]; creatinine‐adjusted): 76.56 µg/g creatinine
GM ± SD urinary concentration ([1]; volume‐adjusted): 0.11 ± 9.33 µg/L
Percentile 25th urinary concentration ([1]; volume‐adjusted): <PQL
Percentile 50th urinary concentration ([1]; volume‐adjusted): <PQL
Percentile 75th urinary concentration ([1]; volume‐adjusted): 0.22 µg/L
Percentile 95th urinary concentration ([1]; volume‐adjusted): 3.28 µg/L
Percentile 100th urinary concentration ([1]; volume‐adjusted): 71.28 µg/L
Maximum urinary neonicotinoid concentration [2]: 26.92 µg/g creatinine
Mean urinary neonicotinoid concentration [2]: 2.2 µg/g creatinine

N#C/N=C1\SCCN1Cc1ccc(Cl)nc1 [Thiacloprid, thiacloprid]
Mean urinary neonicotinoid concentration [1, 5]: 0.09 µg/g creatinine
GM ± SD urinary concentration ([1]; creatinine‐adjusted): 0.03 ± 0.44 μg/g creatinine
Percentile 25th urinary concentration ([1]; creatinine‐adjusted): <PQL
Percentile 50th urinary concentration ([1]; creatinine‐adjusted): <PQL
Percentile 75th urinary concentration ([1]; creatinine‐adjusted): <PQL
Percentile 95th urinary concentration ([1]; creatinine‐adjusted): <PQL
Percentile 100th urinary concentration ([1]; creatinine‐adjusted): 3.41 µg/g creatinine
GM ± SD urinary concentration ([1]; volume‐adjusted): 0.02 ± 0.04 µg/L
Percentile 25th urinary concentration ([1]; volume‐adjusted): <PQL
Percentile 50th urinary concentration ([1]; volume‐adjusted): <PQL
Percentile 75th urinary concentration ([1]; volume‐adjusted): <PQL
Percentile 95th urinary concentration ([1]; volume‐adjusted): <PQL
Percentile 100th urinary concentration ([1]; volume‐adjusted): 0.32 µg/L
Maximum urinary neonicotinoid concentration [2]: 0.2 µg/g creatinine
Mean urinary neonicotinoid concentration [2]: 0.03 µg/g creatinine
urinary excretion correction coefficient r [3]: 0.05

CN1COCN(Cc2cnc(Cl)s2)/C1=N\[N+](=O)[O-] [Thiamethoxam, thiamethoxam]
Mean urinary neonicotinoid concentration [1, 5]: 0.29 µg/g creatinine
GM ± SD urinary concentration ([1]; creatinine‐adjusted): 0.10 ± 0.95 μg/g creatinine
Percentile 25th urinary concentration ([1]; creatinine‐adjusted): <PQL
Percentile 50th urinary concentration ([1]; creatinine‐adjusted): <PQL
Percentile 75th urinary concentration ([1]; creatinine‐adjusted): <PQL
Percentile 95th urinary concentration ([1]; creatinine‐adjusted): 0.5 µg/g creatinine
Percentile 100th urinary concentration ([1]; creatinine‐adjusted): 6.96 µg/g creatinine
GM ± SD urinary concentration ([1]; volume‐adjusted): 0.07 ± 0.95 µg/L
Percentile 25th urinary concentration ([1]; volume‐adjusted): <PQL
Percentile 50th urinary concentration ([1]; volume‐adjusted): <PQL
Percentile 75th urinary concentration ([1]; volume‐adjusted): <PQL
Percentile 95th urinary concentration ([1]; volume‐adjusted): 0.42 µg/L
Percentile 100th urinary concentration ([1]; volume‐adjusted): 7.30 µg/L
Maximum urinary neonicotinoid concentration [2]: 2.11 µg/g creatinine
Mean urinary neonicotinoid concentration [2]: 0.17 µg/g creatinine
urinary excretion correction coefficient r [3]: 0.6

From paper PMC9544187 (Environmental Toxicology and Chemistry, 2022)
